Here are results for 20 compounds from patent US8349851B2, “JAK kinase modulating compounds and methods of use thereof” (Ambit Biosciences Corp., priority 2009, dated 2013).

Assay [1] deals with T1, AuroraB (Homo sapiens, UniProt Q96GD4).
T1 construct: made in house
As to the kind of experiment: Competition binding assay, Aurora B. From the text: Methods for determining binding constant against Aurora B kinase are known to one of skill in the art. Exemplary methods are described in U.S. provisional application No. 61/294,413, and Fabian et al., Nature Biotechnology 2005, 23,329-336.
(§1) Competition binding assays used herein were developed, validated and performed as described in Fabian et al., Nature Biotechnology 2005, 23,329-336. Kinases were produced as fusions to T7 phage (See, Fabian et al. or WO04/015142) or alternatively, the kinases were expressed in HEK-293 cells and subsequently tagged with DNA for PCR detection (See, WO08/005310). For the binding assays, streptavidin-coated magnetic beads were treated with biotinylated affinity ligands for 30 min at rt to generate affinity resins. The liganded beads were blocked with excess biotin and washed with blocking buffer (SeaBlock (Pierce), 1% BSA, 0.05% Tween 20, 1 mM DTT) to remove unbound ligand and to reduce non-specific binding. […] Test compounds were prepared as 100× stocks in DMSO and rapidly diluted into the aqueous environment. DMSO was added to control assays lacking a test compound. Primary screen interactions were performed in polypropylene 384-well plates in a final volume of 34 μL, while Kd determinations were performed in polystyrene 96-well plates in a final volume of 135 μL. […] The kinase concentration in the eluates was measured by quantitative PCR. Each kinase was tested individually against each compound. Kds were determined using eleven serial threefold dilutions. A selectivity score, which is a quantitative measure of selectivity of a compound against a panel of enzymes, may be calculated for a compound by dividing the number of enzymes for which a compound meets a set criteria, (for example, a binding constant of 100 nM or less), by the total number of enzymes tested.

Assay [2] concerns the target T2, JAK2 (Homo sapiens, UniProt O60674).
T2 construct: made in house
Description: Competition binding assay, JAK2. The following applies: read-out: Binding Assay: JAK2 (active_KD).
From the text: (§2) Competition Binding Assay to Determine Binding Constants (Kd) of the Compounds Against JAK Kinases
as §1

The target in assay [3] is T3, JAK3 (Homo sapiens, UniProt P52333).
T3 construct: made in house
T3 sequence (P52333 822-1111 limits assumed): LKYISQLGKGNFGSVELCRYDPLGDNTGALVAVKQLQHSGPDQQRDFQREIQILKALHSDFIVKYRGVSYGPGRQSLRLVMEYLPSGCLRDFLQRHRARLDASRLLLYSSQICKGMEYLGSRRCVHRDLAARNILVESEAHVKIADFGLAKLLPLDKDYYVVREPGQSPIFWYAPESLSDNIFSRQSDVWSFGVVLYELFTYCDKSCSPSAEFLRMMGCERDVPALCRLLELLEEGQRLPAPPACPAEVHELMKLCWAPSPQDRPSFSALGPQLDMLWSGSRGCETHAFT
Description: Competition binding assay, JAK3. The following applies: read-out: Binding Assay: JAK3 (active_KD, ENZ).
From the text: as §2, §1

Assay [4] relates to csTF-1 cells (GM-CSFR/JAK2/STAT5 pathway). As to the kind of experiment: csTF-1 cell-based reporter assay. Further details: species or system human. The following applies: Homo sapiens; GM-CSF at 2 ng/mL, 4 hours; read-out: Cell Assay: CS0017: CS TF-1 reporter assay: IC50. Here is the method: csTF-1 Cell-based Reporter Assay
csTF-1 cells are derived from the human erythroleukemia cell line that is growth dependent on GM-CSF and has an intact GM-CSFR/JAK2/STAT5 pathway. The cell line contains stably integrated beta-lactamase reporter gene under the control of the […] (irf 1) response element recognized by the activated transcription factor STATS. csTF-1 cells (Invitrogen K1219) were washed with assay media (97% OPTIMEM/0.5% dialyzed FBS/0.1 mM NEAA/1 mM Na pyr/P/S) and seeded in the same media at 5×10^5 cell/mL in T150 flask. After 16 hour incubation, cells were seeded at 2×10^5 cell/well in 50 μl volume, into Costar, clear bottom, 96-well assay plates. Serial dilutions of compounds were added to the plates with final DMSO concentration at 0.5% and GM-CSF at 2 ng/mL and the plates were then incubated at […] and 5% CO2 for 4 hours. The plates were brought to room temperature before adding Substrate Mixture according to manufacturer's protocol (Invitrogen, Catalog #K1085). The assay plates containing the substrate mixture were incubated in the dark at room temperature for 2 hours. Blue and green fluorescence was measured with excitation at 409 nm and emission at 460 nm (for blue) and excitation at 409 nm and emission at 530 nm (for green) using Spectra Max Gemini EM.
In general terms: A reporter such as luciferase makes a cellular process visible.

By IC50 is commonly meant the concentration needed to halve the response being measured.

Structures can show the parent of a compound that is named as a salt. Some results are limits rather than exact numbers.

T2 sequence (O60674 849-1124 limits assumed): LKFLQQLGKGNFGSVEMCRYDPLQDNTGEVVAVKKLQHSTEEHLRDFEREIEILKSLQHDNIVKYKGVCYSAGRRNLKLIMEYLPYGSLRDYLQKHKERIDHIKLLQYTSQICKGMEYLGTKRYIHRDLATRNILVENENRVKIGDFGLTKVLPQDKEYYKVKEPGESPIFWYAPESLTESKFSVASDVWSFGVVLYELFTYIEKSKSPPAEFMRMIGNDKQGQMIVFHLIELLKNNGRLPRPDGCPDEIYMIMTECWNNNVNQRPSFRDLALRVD
T1 sequence (Q96GD4 whole entry): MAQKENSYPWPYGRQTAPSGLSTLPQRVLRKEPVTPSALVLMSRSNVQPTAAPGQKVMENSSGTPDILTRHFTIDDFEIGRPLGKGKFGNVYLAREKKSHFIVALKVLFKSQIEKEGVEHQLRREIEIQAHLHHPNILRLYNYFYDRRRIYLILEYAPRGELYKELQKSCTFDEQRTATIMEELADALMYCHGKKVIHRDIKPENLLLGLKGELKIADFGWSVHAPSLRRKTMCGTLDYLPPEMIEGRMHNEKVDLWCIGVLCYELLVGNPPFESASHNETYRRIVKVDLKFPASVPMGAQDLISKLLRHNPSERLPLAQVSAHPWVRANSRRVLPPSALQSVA

Take `OC(c1ccc(F)cc1)c1nc(Nc2cc[nH]n2)c2ccccc2n1` (racemic) [Example 6, (R,S)-(4-(1H-pyrazol-3-ylamino)quinazolin-2-yl)(4-fluorophenyl)methanol]: the results for the Kd in assay [1], in assay [2] and in assay [3] were over 200 nM, at most 1 nM and 10 to 100 nM, respectively. Also, the IC50 in assay [4] was at most 100 nM.

With `Fc1ccc(C(F)c2nc(Nc3cc[nH]n3)c3ccccc3n2)cc1` (racemic) [Example 7, (R,S)-2-(fluoro(4-fluorophenyl)methyl)-N-(1H-pyrazol-3-yl)quinazolin-4-amine], the figures for the Kd in assay [1], in assay [2] and in assay [3] were over 200 nM, at most 1 nM and 10 to 100 nM, respectively. Also, the IC50 in assay [4] was 100 to 500 nM.

`Cc1cc(Nc2nc(C(O)c3ccc(F)cc3)nc3ccccc23)n[nH]1` (racemic) [Example 12, (R,S)-(4-fluorophenyl)(4-(5-methyl-1H-pyrazol-3-ylamino)quinazolin-2-yl)methanol hydrochloride] yielded a Kd in assay [1] of 50 to 200 nM. In addition, the IC50 in assay [4] is at most 100 nM.

As to `COC(c1ccc(F)cc1)c1nc(Nc2cc(C)[nH]n2)c2ccccc2n1` (racemic) [Example 13, (R,S)-2-((4-fluorophenyl)(methoxy)methyl)-N-(5-methyl-1H-pyrazol-3-yl)quinazolin-4-amine], the Kd was over 200 nM in assay [1], at most 1 nM in assay [2] and 10 to 100 nM in assay [3]. Also, in assay [4], the IC50 is 100 to 500 nM.

Take `Cc1cc(Nc2nc(C(N)c3ccc(F)cc3)nc3ccccc23)n[nH]1` (racemic) [Example 14, (R,S)-2-(amino(4-fluorophenyl)methyl)-N-(5-methyl-1H-pyrazol-3-yl)quinazolin-4-amine]: the values for the Kd in assay [1], in assay [2] and in assay [3] were over 200 nM, 1 to 10 nM and 10 to 100 nM, respectively. Besides, the IC50 in assay [4] lay in the range of 100 to 500 nM.

Take `N#Cc1cc(Nc2nc(C(O)c3ccc(F)cc3)nc3ccccc23)n[nH]1` (racemic) [Example 15, (R,S)-3-(2-((4-fluorophenyl)(hydroxy)methyl)quinazolin-4-ylamino)-1H-pyrazole-5-carbonitrile]: the figures for the Kd in assay [1], in assay [2] and in assay [3] were over 200 nM, over 10 nM and over 100 nM, respectively. The IC50 in assay [4] is over 500 nM.

Consider `Cc1cc(Nc2nc(C(O)c3ccc(F)cc3)nc3cccc(F)c23)n[nH]1` (racemic) [Example 16, (R,S)-(5-fluoro-4-(5-methyl-1H-pyrazol-3-ylamino)quinazolin-2-yl)(4-fluorophenyl)methanol], for which the values for the Kd in assay [1], in assay [2] and in assay [3] were over 200 nM, over 10 nM and over 100 nM, respectively. For the same compound, in assay [4], the IC50 lay within 100 to 500 nM.

Turning to `Cc1cc(Nc2nc(C(O)c3ccc(F)cc3)nc3cc(C(F)(F)F)ccc23)n[nH]1` (racemic) [Example 18, (R,S)-(4-fluorophenyl)(4-(5-methyl-1H-pyrazol-3-ylamino)-7-(trifluoromethyl)quinazolin-2-yl)methanol], the Kd is over 200 nM in assay [1], 1 to 10 nM in assay [2] and 10 to 100 nM in assay [3]. Also, the IC50 in assay [4] was 100 to 500 nM.

As for `OC(c1ccc(F)cc1)c1nc(Nc2cc[nH]n2)c2ccc(I)cc2n1` (racemic) [Example 23, (R,S)-(4-(1H-pyrazol-3-ylamino)-7-iodoquinazolin-2-yl)(4-fluorophenyl)methanol], the Kd in assay [1] is over 200 nM; in assay [2] it was 1 to 10 nM; in assay [3], over 100 nM. Besides, in assay [4], the IC50 lay within 100 to 500 nM.

Take `Cc1ccc2c(Nc3cc(C)[nH]n3)nc(C(O)c3ccc(F)cc3)nc2c1` (racemic) [Example 25, (R,S)-(4-fluorophenyl)(7-methyl-4-(5-methyl-1H-pyrazol-3-ylamino)quinazolin-2-yl)methanol]: the Kd in assay [1] was over 200 nM; in assay [2], at most 1 nM; in assay [3], 10 to 100 nM. The IC50 in assay [4] was at most 100 nM.

Turning to `COc1ccc2c(Nc3cc[nH]n3)nc(C(O)c3ccc(F)cc3)nc2c1` (racemic) [Example 29, (R,S)-(4-(1H-pyrazol-3-ylamino)-7-methoxyquinazolin-2-yl)(4-fluorophenyl)methanol], the results for the Kd in assay [1], in assay [2] and in assay [3] were over 200 nM, at most 1 nM and 10 to 100 nM, respectively. Moreover, the IC50 in assay [4] is at most 100 nM.

Regarding `COc1ccc2c(Nc3cc(C)[nH]n3)nc(C(O)c3ccc(F)cc3)nc2c1` (racemic) [Example 31, (R,S)-(4-fluorophenyl)(7-methoxy-4-(5-methyl-1H-pyrazol-3-ylamino)quinazolin-2-yl)methanol], the Kd in assay [1] was over 200 nM; in assay [2] it was at most 1 nM; in assay [3], 10 to 100 nM. Further, the IC50 in assay [4] was at most 100 nM.

Regarding `Cc1cc(Nc2nc(C(O)c3ccc(F)cc3)nc3cc(O)ccc23)n[nH]1` (racemic) [Example 36, (R,S)-2-((4-fluorophenyl)(hydroxy)methyl)-4-(5-methyl-1H-pyrazol-3-ylamino)quinazolin-7-ol], the Kd in assay [1] is 20 to 50 nM; in assay [2], at most 1 nM; in assay [3], 10 to 100 nM. Besides, the IC50 in assay [4] was at most 100 nM.

For `Cc1cc(Nc2nc(C(O)c3ccc(F)cc3)nc3cc(OCCN4CCOCC4)ccc23)n[nH]1` (racemic) [Example 38, (R,S)-(4-fluorophenyl)(4-(5-methyl-1H-pyrazol-3-ylamino)-7-(2-morpholinoethoxy)quinazolin-2-yl)methanol], the Kd in assay [1] was over 200 nM; in assay [2], at most 1 nM; in assay [3], at most 10 nM. Besides, the IC50 in assay [4] was 100 to 500 nM.

As to `Cc1cc(Nc2nc(C(O)c3ccc(F)cc3)nc3cc(OCCO)ccc23)n[nH]1` (racemic) [Example 39, (R,S)-2-(2-((4-fluorophenyl)(hydroxy)methyl)-4-(5-methyl-1H-pyrazol-3-ylamino)quinazolin-7-yloxy)ethanol], the Kd in assay [1] was over 200 nM; in assay [2] it was at most 1 nM; in assay [3], at most 10 nM. Moreover, the IC50 in assay [4] is at most 100 nM.

`Cc1cc(Nc2nc(C(CC#N)c3ccc(F)cc3)nc3ccccc23)n[nH]1` (stereo not shown) [Example 68, 3-(4-fluorophenyl)-3-(4-(5-methyl-1H-pyrazol-3-ylamino)quinazolin-2-yl)propanenitrile]: the Kd in assay [2] fell in the range of 1 to 10 nM; in assay [3], 10 to 100 nM. The IC50 in assay [4] is at most 100 nM.

Take `Cc1cc(Nc2nc(C(NC3CC3)c3ccc(F)cc3)nc3ccccc23)n[nH]1` (stereo not shown) [Example 69, 2-((cyclopropylamino)(4-fluorophenyl)methyl)-N-(5-methyl-1H-pyrazol-3-yl)quinazolin-4-amine]: the Kd in assay [2] is at most 1 nM; in assay [3] it was 10 to 100 nM. In assay [4], the IC50 was 100 to 500 nM.

For the compound `Cc1cc(Nc2nc(C(CS(C)(=O)=O)c3ccc(F)cc3)nc3ccccc23)n[nH]1` (stereo not shown) [Example 70, 2-(1-(4-fluorophenyl)-2-(methylsulfonyl)ethyl)-N-(5-methyl-1H-pyrazol-3-yl)quinazolin-4-amine], the Kd was at most 1 nM in assay [2] and 10 to 100 nM in assay [3]. Further, the IC50 in assay [4] fell in the range of 100 to 500 nM.

On to `Cc1cc(Nc2nc(C(CCN)c3ccc(F)cc3)nc3ccccc23)n[nH]1` (stereo not shown) [Example 71, 2-(3-amino-1-(4-fluorophenyl)propyl)-N-(5-methyl-1H-pyrazol-3-yl)quinazolin-4-amine], for which the results for the Kd in assay [2] and in assay [3] were 1 to 10 nM and 10 to 100 nM, respectively. Also, the IC50 in assay [4] is over 500 nM.

For `COc1cc(Nc2nc(C(=O)c3ccc(F)cc3)nc3ccccc23)n[nH]1` [Example 73, (4-fluorophenyl)(4-(5-methoxy-1H-pyrazol-3-ylamino)quinazolin-2-yl)methanone], the Kd in assay [2] was at most 1 nM; in assay [3], 10 to 100 nM. In assay [4], the IC50 was in the range of 100 to 500 nM.
